A word on the pIC50: it is the IC50 on a negative log10 scale, so that one unit is a factor of ten. Read a low pIC50 as a large IC50.

pIC50: −log10 of the molar value.

For this experiment, the target named is Potassium voltage-gated channel subfamily A member 3 (Homo sapiens, UniProt P22001). In words: Biological Assay. The procedure: The QPatch HT system (Sophion Bioscience A/S, Denmark) was used with the conventional whole-cell configuration. This system is an automated, chip-based planar patch clamp device allowing for up to 48 parallel independent experiments in one experimental assay run. Cells are added to each well and drawn by suction onto a small aperture to obtain a Gigaohm seal between the cell membrane and treated silicon surface, and whole-cell recordings initiated after access is achieved by suction and/or voltage pulses. The QPatch HT uses static perfusion, whereby a small volume of recording solution or drug is added to a reservoir on the chip and the solution perfuses across the cell through quartz-lined microfluidic channels; this solution is removed by capillary action when the next sample application is made.CHO-Kv1.3 cells were prepared for experiments by dissociation from T175 cell culture flasks using trypsin-EDTA (0.05%), cells were kept in serum free media in the cell hotel on board the QPatch HT. These cells were sampled, washed and re-suspended in extracellular recording solution by the QPatch HT immediately before application to the recording well site on the chip. Experiments were performed using the following solutions; extracellular solution contained (in mM); 150 NaCl, 10 KCl, 1 MgCl2, 3 CaCl2), 10 Glucose and 10 HEPES (pH 7.4, NaOH) and intracellular solution contained (in mM); 20 KCl, 120 KF, 10 HEPES, 10 EGTA, 5 ATP (pH 7.2, KOH).The potency (Inhibitory Concentration 50%, IC50) of synthesized compounds against Kv1.3 was determined from concentration-response relationships established by cumulatively applying four escalating concentrations of test compound to an individual cell and a minimum of N≥3 individual cells of data per compound were used to generate the IC50 value.
Chain of Potassium voltage-gated channel subfamily A member 3 (P22001 whole entry, the tested form may be a part): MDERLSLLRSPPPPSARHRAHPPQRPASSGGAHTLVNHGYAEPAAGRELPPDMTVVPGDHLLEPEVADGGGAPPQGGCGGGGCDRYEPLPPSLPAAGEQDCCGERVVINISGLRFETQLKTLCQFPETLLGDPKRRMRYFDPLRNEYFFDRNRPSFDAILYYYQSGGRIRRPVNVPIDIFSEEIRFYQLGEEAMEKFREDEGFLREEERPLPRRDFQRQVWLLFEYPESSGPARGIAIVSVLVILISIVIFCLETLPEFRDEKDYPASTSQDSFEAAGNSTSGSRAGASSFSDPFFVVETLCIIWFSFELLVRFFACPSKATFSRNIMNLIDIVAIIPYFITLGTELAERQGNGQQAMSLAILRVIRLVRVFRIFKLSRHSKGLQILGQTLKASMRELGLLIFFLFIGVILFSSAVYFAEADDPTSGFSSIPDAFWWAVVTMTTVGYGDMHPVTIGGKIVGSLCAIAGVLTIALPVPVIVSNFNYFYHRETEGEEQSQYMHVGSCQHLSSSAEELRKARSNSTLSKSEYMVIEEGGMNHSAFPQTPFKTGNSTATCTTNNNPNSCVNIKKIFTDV
Take `CC[C@@H]1N=C(C23CC(N(Cc4ccc(C(F)(F)F)cc4)S(=O)(=O)c4ccc(F)cc4)(C2)C3)N[C@@]1(C)C(=O)NCCC(F)(F)F` (racemic) [US12128028, Example 235]: the pIC50 is 6.67.

Take `CC1(C)N=C(C23CC(N(Cc4ccc(Cl)c(F)c4)S(=O)(=O)c4ccccc4)(C2)C3)N[C@H]1C(=O)N1CCC[C@H](C(F)(F)F)C1` (racemic) [US12128028, Example 173]: the pIC50 was 6.99.

The compound `CC[C@H]1N=C(C23CC(N(Cc4ccc(C(F)(F)F)cc4)S(=O)(=O)c4ccc(F)cc4)(C2)C3)N[C@@]1(C)C(=O)NCCC(F)(F)F` (racemic) [US12128028, Example 259] showed a negative-log IC50 (pIC50) of 6.44.

The record behind these values is BindingDB's records for patent US12128028 (Metrion Biosciences, 2024).
